Results on six compounds are retold here after paper PMC6930570, “2-Arylidene-1-indandiones as Pleiotropic Agents with Antioxidant and Inhibitory Enzymes Activities” (Molecules, 2019).

As a reminder, the inhibition is how much of the control response was suppressed. The term melting point denotes the temperature of the solid-liquid transition.

In one data set the test system is trypsin. Description: In vitro inhibition of trypsin induced proteolysis. The data set is classed as biochemical. Conditions: bovine albumin substrate, no = no action under the experimental conditions. On the procedure:
Serine proteases are implicated in the pathophysiology of inflammatory diseases and trypsin is well known years ago [66]. Trypsin has been associated with host defense reactions and tissue damage. In this study, the novel derivatives have been evaluated towards trypsin and thrombin. Compounds 8 and 9 present high activity.
The Kunitz method was used after modification using bovine albumin was used as substrate for trypsin. In this assay, first 200 μL of 0.075 mg/mL trypsin and 780 μL of phosphate buffer pH 7.6 including the tested compounds (20 μL in DMSO, final concentration 100 μM) were pre-incubated at 37 °C for 20 min and then added 1 mL of albumin (stock solution 6 g/100 mL in phosphate buffer 0.1 M, pH 7.6) and incubated at 37 °C for 30 min. Secondly 1mLof 5% trichloroacetic acid was added to the incubated solution to stop the enzyme’s reaction and allowed to set at room temperature for 1 h. Then the solution was filtered, and the absorption of the filtrate was measured at 280 nm using salicylic acid as a reference compound [61] (Table 3).

Data set [1] is described as follows: Reducing activity of the stable radical DPPH. In kind it is biochemical. The protocol: The novel derivatives were studied for their interaction with the sTable 2,2-diphenyl-1-picrylhydrazyl free radical (DPPH)at concentration 50 µM, 100 µM and 200 µM after 20 and 60 min (Table 2). In this assay the DPPH radical is reduced transferring one electron from the antioxidant. Phenolic compounds such as catechol and derivatives generate phenoxide anions with strong antioxidant capacity. Nordihydroguaretic acid (NDGA), the reference compound acts by this mechanism. Compound 10 presents the highest scavenging activity at 100 µM after 20 min correlated with the presence of the phenolic OH. Compounds 3, 4, 5, 7 presented medium activities depending from time and concentration. The presence of the heteroatom O or S seems to influence the activity e.g., derivatives 1, 2, and 3. Replacement of phenyl ring (4) by a thienyl group (1) decreases antioxidant behavior. […] On the contrary the presence of the furyl ring (3) enhances reduction. Additionally, the presence of a π-dimethyl-amino group 6 reduces the scavenging ability whereas its absence in (5), increases the activity. The presence of two conjugated double bonds (5) leads to lower activity compared to the simpler compound 4. Compounds 9 and 10 present the highest milogP values (5.94). Both include a phenolic hydrogen in their structure. […] On the contrary in compound 9 steric reasons are possible to lead to a decrease. Lipophilicity seems to influence the interaction of compound 10.
To a solution of DPPH in absolute ethanol an equal volume of the compounds with final concentrations of 50, 100 and 200 µM from a stock solution of 10 mM (in 1% DMSO and ethanol) was added. After 20 and 60 min the absorbance was recorded at 517 nm at room temperature (Table 2).

Data set [2] has as its system carrageenin-induced rat paw edema. Description: Inhibition of the carrageenin-induced rat paw edema (CPE). In kind it is in vivo, Fisher 344 rats. Conditions: Rattus norvegicus, ip; 0.01 mmol/kg body weight, intraperitoneally, 3.5 h after carrageenin; read-out: CPE % (reduction of the rat paw edema). The source says:
Carrageenin-induced rat paw edema (CPE) model was used to study the in vivo anti-inflammatory activity of the tested derivatives and the results are presented in Table 3. […] Compounds 2, 7, 8, 10, and 12 presented small differences in their biological activity. The presence of the thienyl group as well as of the furyl leads to higher anti-inflammatory activity (1 and 3) while substitution with a phenyl group leads to two-fold decrease of the activity (28%).
Edema was induced in the right hind paw of Fisher 344 rats (150–200 g) by the intradermal injection of 0.1 mL 2% carrageenin in water. Both sexes were used while females pregnant were excluded. Each group was composed of 6–15 animals. The animals, which have been bred in our laboratory, were housed under standard conditions and received a diet of commercial food pellets and water ad libitum during the maintenance but they were entirely fasted during the experiment period. Our studies were in accordance with recognised guidelines on animal experimentation. (guidelines for the care and use of laboratory animals published by the Greek Government 160/1991, based on EU regulations 86/609). Rats were kept in the Centre of the School of Veterinary Medicine (EL54 BIO42), Aristotle University of Thessaloniki, which is registered by the official state veterinary authorities (presidential degree 56/2013, in harmonization with the European Directive 2010/63/EEC). The experimental protocols were approved by the Animal Ethics Committee of the Prefecture of Central Macedonia (no. 270079/2500). The tested compounds 0.01 mmol/kg body weight were suspended in water, with a few drops of Tween 80 and ground in a mortar before use and were given intraperitoneally simultaneously with the carrageenin injection. The rats were euthanized 3.5 h after carrageenin injection. The difference between the weight of the injected and uninjected paws was calculated for each animal. The change in paw weight was compared with that in control animals (treated with water) and expressed as a percent inhibition of the edema CPE % values […] [58, 59]. Indomethacin in 0.01 mmol/kg (47%). Values CPE % are the mean from two different experiments with a standard error of the mean less than 10% (Table 3).
(In general: The carrageenan paw model is a standard test of acute inflammation.)

Data set [3] in a line: Experimental lipophilicity as RM values by RPTLC. Conditions: methanol/water 70/30, 24 °C, average of at least 5 measurements. In kind it is physicochemical. Also noted: key: RM = log[(1/Rf) − 1], from Rf values by RPTLC. The source says:
Lipophilicity is a physicochemical parameter indicating the relationship of a drug to its biological activity. It affects ligand-target binding interactions, solubility, ADME (absorption, distribution, bioavailability, metabolism, and elimination) and toxicological effects. RPTLC (reverse phase thin layer chromatography) method was used for the experimental determination, as RM values. The RPTLC method is considered a secure, rapid and appropriate method for expressing the lipophilic character of a compound (Table 1).
Reversed phase TLC (RPTLC) was performed on silica gel plates impregnated with 5% (v/v) liquid paraffin in light petroleum ether. The mobile phase was a methanol/water mixture (70/30, v/v). The plates were developed in closed chromatography tanks saturated with the mobile phase at 24 °C. Spots were detected under UV light. Five individual measurements of Rf values were recorded and used for the determination of RM using the equation RM = log [(1/Rf) − 1] [59, 60, 62] (Table 2).

The target of another data set is T1, soybean lipoxygenase (Glycine max, UniProt P08170).
T1 construct: purchased Sigma Chemical, Co. (St. Louis)
T1 sequence (P08170 1-839): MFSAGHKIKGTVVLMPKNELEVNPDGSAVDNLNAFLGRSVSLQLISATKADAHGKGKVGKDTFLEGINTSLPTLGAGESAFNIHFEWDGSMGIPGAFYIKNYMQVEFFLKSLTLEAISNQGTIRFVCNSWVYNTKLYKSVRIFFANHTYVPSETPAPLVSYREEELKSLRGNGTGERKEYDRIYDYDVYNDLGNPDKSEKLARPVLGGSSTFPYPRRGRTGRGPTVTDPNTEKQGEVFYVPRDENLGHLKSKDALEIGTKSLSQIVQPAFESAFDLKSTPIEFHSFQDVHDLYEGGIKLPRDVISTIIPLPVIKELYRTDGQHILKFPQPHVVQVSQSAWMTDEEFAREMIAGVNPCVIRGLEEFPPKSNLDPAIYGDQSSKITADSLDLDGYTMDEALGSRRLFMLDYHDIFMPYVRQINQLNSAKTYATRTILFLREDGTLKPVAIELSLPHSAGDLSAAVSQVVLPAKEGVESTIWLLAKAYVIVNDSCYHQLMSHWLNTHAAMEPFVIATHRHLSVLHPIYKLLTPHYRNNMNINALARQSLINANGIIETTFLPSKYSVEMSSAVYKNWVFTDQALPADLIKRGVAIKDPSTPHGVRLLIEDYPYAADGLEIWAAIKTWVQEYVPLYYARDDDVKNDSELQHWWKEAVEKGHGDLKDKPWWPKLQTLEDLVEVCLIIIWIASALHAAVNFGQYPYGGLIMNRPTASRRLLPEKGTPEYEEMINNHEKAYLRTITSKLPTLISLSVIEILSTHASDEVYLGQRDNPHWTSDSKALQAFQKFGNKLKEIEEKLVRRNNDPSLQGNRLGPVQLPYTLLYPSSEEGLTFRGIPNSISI
As to the kind of experiment: Soybean lipoxygenase inhibition in vitro. In kind it is biochemical. Conditions: sodium linoleate substrate, no = no action under the experimental conditions, read-out: LOX (% Inhibition 100 µM). On the procedure: Thus, we used soybean LOX in our in vitro experiments.
In vitro study was performed as reported previously by our group. Sodium linoleate (0.1 mM) and 0.2 mL of enzyme solution (1/9 × 104 w/v in saline) were used for the incubation of the tested derivatives.

The nature of data set [4]: Inhibition of linoleic acid peroxidation induced by AAPH. The data set is classed as biochemical. To be noted: no = no action under the experimental conditions. The source says: In the water soluble 2,2′-azobis(2-amidinopropane) hydrochloride (AAPH) the free radicals are produced in vitro through spontaneous thermal decomposition resembling to lipid peroxidation in cells due to the action of the peroxyl radicals. […] Compounds 11, 5, 4 and 3 presented no activity under the experimental conditions. From the experimental results it can be concluded that the 3,5-di-tert-butyl-group offers protection against lipid peroxidation. Electronic parameters expressed by the highest occupied molecular orbital (HOMO) describes better the biological activity (Equation (2)). log AAPH % = −22.042(± 8.731) HOMO − 4.853 (2.622)(2) n = 8, r = 0.930, r^2 = 0.864, q^2 = 0.567, s = 0.146, F1,8 = 5.783, α = 0.1
The oxidation reaction was started with 2,2′-Azobis(2-amidinopropane) dihydrochloride (AAPH) as a free radical initiator. Linoleic acid sodium salt was oxidized at 234 nm to a conjugated diene hydroperoxide resulting an increased absorption. Trolox was used as reference compound (93%) (Table 3).

Data set [5] can be described thus: ABTS+. decolorization assay. The data set is classed as biochemical. Conditions: 1 min, no = no action under the experimental conditions. The source says:
The radical cation ABTS^+• is directly generated through potassium persulfate by oxidation with no participation of an intermediary radical and then the reduction is followed by adding electron-donating antioxidants. In this assay the radical is generated before adding the antioxidant (decolorization assay). […] It seems that lipophilicity influences the activity, since both are presenting high lipophilicity values. […] The radical cation ABTS^+• was generated from an ABTS stock solution in water (7 mM) which was mixed with potassium persulfate (2.45 mM) and left in the dark at room temperature for 12–16 h before use. The results are recorded after 1min of the mixing solutions at 734 nm and compared to the appropriate standard inhibitor Trolox (Table 3).

`O=C(O)c1ccccc1O` [Salycilic Acid, salicylic acid, reference compound]: the “Iptr% 100 µM (inhibition of trypsin induced proteolysis)” value in the data set with trypsin was found to be 54%.
Take `CC(Cc1ccc(O)c(O)c1)C(C)Cc1ccc(O)c(O)c1` (stereo not shown) [NDGA, Nordihydroguaretic acid, reference compound]: in data set [1], the “RA% 50 µM 20 min” value was 81%, the “RA% 50 µM 60 min” value came to 83%, the “RA% 100 µM 20 min” value is reported as 87% and the “RA% 100 µM 60 min” value worked out at 93%. In addition, in data set [1], the “RA% 200 µM 20 min” value was found to be 94% and the “RA% 200 µM 60 min” value is 96%.
As for `COc1ccc2c(c1)c(CC(=O)O)c(C)n2C(=O)c1ccc(Cl)cc1` [Indomethacin, reference compound], the inhibition in vivo at 10 µmol/kg in data set [2] is 47%.
As to `O=C1C(=C/C=C\c2ccccc2)C(=O)c2ccccc21` [Compound 5, (Z)-2-(3-phenylallylidene)-1H-indene-1,3(2H)-dione], the melting point lay in the range of 165 to 167 °C. The “RM (±SD)” value in data set [3] was found to be 0.158 ± 0. Further, in data set [1], the “RA% 50 µM 20 min” value was determined as 21%, the “RA% 50 µM 60 min” value is reported as 25%, the “RA% 100 µM 20 min” value is reported as 44% and the “RA% 100 µM 60 min” value is given as 48%. Besides, in data set [1], the “RA% 200 µM 20 min” value is reported as 57% and the “RA% 200 µM 60 min” value came out at 72%. Moreover, the inhibition at 100 µM on soybean lipoxygenase turned out to be 26.4%. In addition, the “AAPH% 100 µM (anti-lipid peroxidation)” value in data set [4] was “no activity and no”. Further, the “ABTS+. % 100 µM (decolorization activity)” value (“ABTS+. % 100 µM” for short) in data set [5] is given as “no”. The “Iptr% 100 µM (inhibition of trypsin induced proteolysis)” value in the data set on trypsin was “do not present any activity and no”.
`O=C1C(=Cc2ccc3[nH]ccc3c2)C(=O)c2ccccc21` [Compound 11, (Z)-2-((1H-indol-5-yl)methylene)-1H-indene-1,3(2H)-dione]: the melting point is 223 to 225 °C. In data set [3], the “RM (±SD)” value is recorded as −0.196 ± 0.02. In addition, in data set [1], the “RA% 50 µM 20 min” value is 2%, the “RA% 50 µM 60 min” value was 2%, the “RA% 100 µM 20 min” value was found to be 19% and the “RA% 100 µM 60 min” value was found to be 19%. Moreover, in data set [1], the “RA% 200 µM 20 min” value is reported as 10% and the “RA% 200 µM 60 min” value stood at 10%. Also, on soybean lipoxygenase, the inhibition at 100 µM is 38.6%. Moreover, in data set [4], the “AAPH% 100 µM (anti-lipid peroxidation)” value is “no activity and no”. Besides, the “ABTS+. % 100 µM” value in data set [5] came to 8%. For the same compound, in the data set with trypsin, the “Iptr% 100 µM (inhibition of trypsin induced proteolysis)” value amounted to 6%.
Regarding `Cc1c(C)c2c(c(C)c1O)CCC(C)(C(=O)O)O2` (stereo not shown) [Trolox, reference compound], the “AAPH% 100 µM (anti-lipid peroxidation)” value in data set [4] worked out at 93%. Also, the “ABTS+. % 100 µM” value in data set [5] is recorded as 91%.
